Data as given in patent US10207993B2 (priority 2014, dated 2019).
Where “and” joins values, the source holds several entries; their conditions need not be identical. Equal entries are not always repeated. Where two headings read alike, the source gives them in different places.

Legend:
H37Rv [1] = experiment: microbe, parasite or virus in culture; type: cell-based, M. tuberculosis; conditions: Mycobacterium tuberculosis, H37RV, THP-1, 90 h, read-out: H37Rv % Inhibition at 500 nM
JAL2287 [2] = type: cell-based, M. tuberculosis
JAL2287 [3] = experiment: microbe, parasite or virus in culture; type: cell-based, M. tuberculosis; conditions: Mycobacterium tuberculosis, THP-1, 90 h
[4] = tested on: drug susceptible M. tb (H37Rv); parameters: species or system M. tuberculosis; conditions: in vivo
[5] = Balb/C, mouse, in vivo, po, 10 mg/kg
MDR-M. tb (JAL2287) = tested on: MDR-M. tb (JAL2287); parameters: species or system M. tuberculosis; conditions: in vivo
MYC431 [6] = type: cell-based, M. tuberculosis
H37Rv [7] = type: cell-based, M. tuberculosis
in vivo [8] = conditions: Balb/C, mouse
in vivo [9] = conditions: Beagle, dog
H37Rv [10] = experiment: microbe, parasite or virus in culture; type: cell-based, M. tuberculosis; conditions: Mycobacterium tuberculosis, THP-1, 90 h
MYC431 [11] = experiment: microbe, parasite or virus in culture; type: cell-based, M. tuberculosis; conditions: Mycobacterium tuberculosis, THP-1, 90 h

CO[C@@H](C(=O)NC1CCNCC1)c1ccccc1 [Compound 1085, (R)-2-Methoxy-2-phenyl-N-(piperidin-4-yl)acetamide]
inhibition at 0.5 µM (H37Rv [1]): 93%
CFU/well (1 × 10^3) After treatment with 1085 (JAL2287 [2]): 6.33 ± 3.51 CFU/well (1 × 10^3)
EC50 (JAL2287 [3]): 0.1 nM
CFU/Lung (×10^5) [4]: 4.76 ×10^5
Cl [5]: 2 mL/min/kg
Vd [5]: 0.13 L/kg
% Reduction of CFU in lung (MDR-M. tb (JAL2287)): 43.5% and 62.4% and 80.0%
% Reduction of CFU in spleen (MDR-M. tb (JAL2287)): 96.6% and 98.3%
CFU/spleen (×10^3) (MDR-M. tb (JAL2287)): 0.4 ×10^3 and 0.2 ×10^3
CFU/well (1 × 10^3) After treatment with 1085 (MYC431 [6]): 6.00 ± 1.00 CFU/well (1 × 10^3)
CFU/well (1 × 10^3) After treatment with 1085 (H37Rv [7]): 8.66 ± 2.51 CFU/well (1 × 10^3)
bioavailability (in vivo [8]): 47%
AUC (in vivo [8]; iv, 1 mg/kg): 1.73 µM·h
Cmax (in vivo [8]; iv, 1 mg/kg): 3.06 µM
Tmax (in vivo [8]; iv, 1 mg/kg): 0 h
Vd (in vivo [8]; iv, 1 mg/kg): 0.22 L/kg
clearance (in vivo [8]; iv, 1 mg/kg): 1.33 mL/min/kg
half-life (in vivo [8]; iv, 1 mg/kg): 1.9 h
AUC (in vivo [8]; po, 10 mg/kg): 8.17 µM·h
Cmax (in vivo [8]; po, 10 mg/kg): 11.2 µM
Tmax (in vivo [8]; po, 10 mg/kg): 0.2 h
half-life (in vivo [8]; po, 10 mg/kg): 2.8 h
bioavailability (in vivo [9]): 57%
AUC(0-t) (in vivo [9]; iv, 0.3 mg/kg): 3.44 µM·h
Cmax (in vivo [9]; iv, 0.3 mg/kg): 2.76 µM
Tmax (in vivo [9]; iv, 0.3 mg/kg): 0 h
half-life (in vivo [9]; iv, 0.3 mg/kg): 3 h
AUC(0-t) (in vivo [9]; po, 3 mg/kg): 19.6 µM·h
Cmax (in vivo [9]; po, 3 mg/kg): 3.77 µM
Tmax (in vivo [9]; po, 3 mg/kg): 1 h
half-life (in vivo [9]; po, 3 mg/kg): 2.5 h
EC50 (H37Rv [10]): 0.5 nM
EC50 (MYC431 [11]): 0.1 nM
